Counter-ions that a name gives are not always drawn.
System: Aβ42 production
Experiment: Quantification of Aβ peptide (Aβx-42 ELISA) in neuronal culture from rat fetus brain
Format: cell-based
Conditions: primary neuronal culture from cerebral cortices of embryonic day 18 Wistar rat; compound added on day 4 of culture, incubation for 3 days; Aβx-42 in medium by ELISA, % of CTRL; read-out: Effect to Reduce Aβ42 Production IC50
Experimental: Quantification of Aβ Peptide in Neuronal Culture from Rat Fetus Brain (1)
Primary neuronal cultures were prepared from cerebral cortices from embryonic day 18 Wistar rat (Charles River Japan, Yokohama, Japan). The embryos were aseptically removed from a pregnant rat under ether anesthesia. The brain was isolated from the embryo, and immersed in ice-cold L-15 medium (for example, Invitrogen Corp. Cat #11415-064, Carlsbad, Calif., USA, or SIGMA L1518, St. Louis. MO, USA). The cerebral cortex was collected under a stereoscopic microscope from the brain. The cerebral cortex fragments collected were subjected to enzyme treatment in an enzyme solution containing 0.25% trypsin (for example, Invitrogen Corp., Cat #15050-065, Carlsbad, Calif., USA) and 0.01% DNase (for example, Sigma D5025, St. Louis. MO, USA) at 37 C for 30 minutes to allow for cell dispersion. The enzyme reaction was terminated by addition of same volume of heat-inactivated horse serum. After centrifugation at 1500 rpm for 5 minutes, the supernatant was removed and 5-10 ml of medium was added to the cell pellet. Neurobasal Medium™ (Invitrogen Corp., Carlsbad, Calif., USA) supplemented with 2% B-27 supplement (Invitrogen Corp., Carlsbad, Calif., USA), 25 μM 2-mercaptoethanol (2-ME, WAKO, 139-06861, Osaka, Japan), 0.5 mM L-glutamine (for example, Invitrogen Corp., Cat # 25030-081, Carlsbad, Calif., USA), and 1% antibiotics-antimycotics (Invitrogen Corp., Cat # 15240-062, Carlsbad, Calif., USA) was used as the culture medium (Neurobasal/B27/2-ME). At the compound evaluation, the medium of the same composition not to add 2-ME alone (Neurobasal/B27) was used. The cell pellet was triturated by mild pipetting. Remaining cell pellet was removed by filtering through a 40-μm nylon mesh (Cell Strainer, Cat # 35-2340, Becton Dickinson Labware, Franklin Lakes, N.J., USA) and a neuronal cell suspension was obtained. The neuronal cell suspension was diluted with the Neurobasal/B27/2-ME medium and then plated in a volume of 100 μl/well to obtain an initial cell density of 5×10^5 cells/cm^2 in a 96-well polystyrene plate pre-coated with poly-L or D-lysine (for example, Falcon MICROTEST Tissue culture plate 96 well flat bottom with low evaporation lid (Cat # 35-3075, Becton Dickinson Labware, Franklin Lakes, N.J., USA) coated with poly-L-lysine using the method shown below, or BIOCOAT™ cell environments Poly-D-lysine cell ware 96-well plate, Cat # 35-6461, Becton Dickinson Labware, Franklin Lakes, N.J., USA). Poly-L-lysine coating was carried out as follows. Poly-L-lysine (SIGMA P2636, St. Louis, Mo., USA) solution at 100 μg/ml was prepared aseptically with 0.15 M Borate buffer (pH 8.5). The solution was added to a 96-well polystyrene […] at 50-100 μl/well and incubated at room temperature for one hour or more, or at 4 C overnight or longer. This was rinsed 4 or more times with sterile water, and then dried or rinsed with, for example, sterile PBS or medium, and used for plating cells. Cells were cultured for one day in an incubator of 5% CO2-95% air at 37 C, the entire amount of the medium was exchanged with fresh Neurobasal/B27/2-ME, and the cells were then cultured for further 3 days.
Drugs were added on day 4 of culture as follows. The entire amount of the medium was removed from culture well, and Neurobasal/B27 medium was added at 180 μl/well. The test compound dimethyl sulfoxide (hereinafter abbreviated as DMSO) solution was diluted with Neurobasal/B27 so than it would be 10-fold of the desired final concentration. A diluent was added at 20 μl/well and mixed well. The final concentration of DMSO was 1% or less. Only DMSO was added to the control group.
After incubation for 3 days, the entire amount of the medium was collected as ELISA sample. This was used without any dilution for Aβx-42 measurement, and diluted to 5-fold with the diluent supplied with ELISA kit for Aβx-40 measurement, before subjecting to respective ELISA assays. […]

## COc1cc(/C=C/C(=O)N[C@H]2CCOc3ccccc32)ccc1-n1cnc(C)c1 (mixture of isomers) [Example 414, (E)-N-[(4R) and (4S)-chroman-4-yl]-3-[3-methoxy-4-(4-methyl-1H-imidazol-1-yl)phenyl]acrylamide]
  IC50: 0.13 µM

## COc1cc(/C=C2\CCCN([C@H]3CCOc4ccccc43)C2=O)ccc1-n1cnc(C)c1 (mixture of isomers) [Example 420, (E)-1-[(4R) and (4S)-chroman-4-yl]-3-[3-methoxy-4-(4-methyl-1H-imidazol-1-yl)benzylidene]piperidin-2-one]
  IC50: 0.12 µM

## COc1cc(/C=C2\CCCN([C@H](C)c3ccc(F)cc3F)C2=O)ccc1-n1cnc(C)c1 (mixture of isomers) [Example 621, (E)-1-[(1R) and (1S)-1-(2,4-difluorophenyl)ethyl]-3-[3-methoxy-4-(4-methyl-1H-imidazol-1-yl)benzylidene]piperidin-2-one]
  IC50: 0.1 µM

## COc1cc(C=C(F)C(=O)N[C@@H]2c3ccccc3C[C@@H]2O)ccc1-n1cnc(C)c1 (stereo in doubt) [Example 90, (E)-2-fluoro-N-[(1R,2S)-2-hydroxy-indan-1-yl]-3-[3-methoxy-4-(4-methyl-1H-imidazol-1-yl)phenyl]acrylamide]
  IC50: 0.24 µM

## COc1cc(/C=C(\F)C(=O)NC2c3ccccc3-c3ccccc32)ccc1-n1cnc(C)c1 [Example 86, N-(9H-fluoren-9-yl)-2-fluoro-3-[3-methoxy-4-(4-methyl-1H-imidazol-1-yl)phenyl]acrylamide]
  IC50: 0.32 µM

## COc1cc(/C=C(\Cc2ccccc2)C(=O)N[C@@H]2c3ccccc3C[C@@H]2O)ccc1-n1cnc(C)c1 [Example 96, (E)-2-benzyl-N-[(1R,2S)-2-hydroxy-indan-1-yl]-3-[3-methoxy-4-(4-methyl-1H-imidazol-1-yl)phenyl]acrylamide trifluoroacetic acid salt]
  IC50: 0.22 µM

## COc1cc(/C=C/C(=O)NCc2cccc(-c3ccccc3)c2)ccc1-n1cnc(C)c1 [Example 121, (E)-N-biphenyl-3-ylmethyl-3-(3-methoxy-4-(4-methyl-1H-imidazol-1-yl)phenyl)acrylic acid amide]
  IC50: 0.07 µM

## COc1cc(/C=C/C(=O)N[C@H]2CCc3ccccc32)ccc1-n1cnc(C)c1 [Example 122, (E)-N-[(1S)-indan-1-yl]-3-[3-methoxy-4-(4-methyl-1H-imidazol-1-yl)phenyl]acrylamide trifluoroacetic acid salt]
  IC50: 0.19 µM

## COc1cc(/C=C/C(=O)N[C@@H](CF)Cc2ccccc2)ccc1-n1cnc(C)c1 [Example 139, (E)-N-[(1R)-fluoromethyl-2-phenylethyl]-3-[3-methoxy-4-(4-methyl-1H-imidazol-1-yl)phenyl]acrylic acid amide]
  IC50: 0.2 µM

## COc1cc(/C=C/C(=O)N2CCC(c3cc4ccccc4[nH]3)CC2)ccc1-n1cnc(C)c1 [Example 338, (E)-1-{4-(1H-indol-2-yl)piperidin-1-yl}-3-[3-methoxy-4-(4-methyl-1H-imidazol-1-yl)phenyl]propenone]
  IC50: 0.33 µM

## COc1cc(/C=C/C(=O)N2CCCC(c3ccc(F)cc3)CC2)ccc1-n1cnc(C)c1 (stereo not shown) [Example 353, (E)-1-[4-(4-fluorophenyl)azepan-1-yl]-3-[3-methoxy-4-(4-methyl-1H-imidazol-1-yl)phenyl]propenone]
  IC50: 0.22 µM

## COc1cc(/C=C/C(=O)N2CCC(c3cc4ccccc4n3CCO)CC2)ccc1-n1cnc(C)c1 [Example 366, (E)-1-{4-[1-(2-hydroxyethyl)-1H-indol-2-yl]piperidin-1-yl}-3-[3-methoxy-4-(4-methyl-1H-imidazol-1-yl)phenyl]propenone]
  IC50: 0.33 µM

## COc1cc(/C=C2\CCCN(Cc3cccc(F)c3)C2=O)ccc1-n1cnc(C)c1 [Example 398, (E)-1-(3-fluorobenzyl)-3-[3-methoxy-4-(4-methyl-1H-imidazol-1-yl)benzylidene]piperidin-2-one]
  IC50: 0.22 µM

## COc1cc(/C=C2\CCCN(Cc3cccc(I)c3)C2=O)ccc1-n1cnc(C)c1 [Example 402, (E)-1-(3-iodobenzyl)-3-[3-methoxy-4-(4-methyl-1H-imidazol-1-yl)benzylidene]piperidin-2-one monotrifluoroacetic acid salt]
  IC50: 0.07 µM

## COc1cc(/C=C2\CCCN(Cc3cc(Cl)nc(Cl)c3)C2=O)ccc1-n1cnc(C)c1 [Example 403, (E)-1-(2,6-dichloropyridine-4-ylmethyl)-3-[3-methoxy-4-(4-methyl-1H-imidazol-1-yl)benzylidene]piperidin-2-one]
  IC50: 0.09 µM

## COc1cc(/C=C2\CCCN(Cc3ccc(F)c(F)c3)C2=O)ccc1-n1cnc(C)c1 [Example 416, (E)-1-(3,4-difluorobenzyl)-3-[3-methoxy-4-(4-methyl-1H-imidazol-1-yl)benzylidene]piperidin-2-one]
  IC50: 0.1 µM

## COc1cc(/C=C2\CCCN(C3Cc4ccccc4C3)C2=O)ccc1-n1cnc(C)c1 [Example 418, (E)-1-indan-2-yl-3-[3-methoxy-4-(4-methyl-1H-imidazol-1-yl)benzylidene]piperidin-2-one]
  IC50: 0.109 µM

## COc1cc(/C=C2\CCCN([C@@H](C)c3ccc(F)cc3)C2=O)ccc1-n1cnc(C)c1 [Example 425, (E)-1-[(1S)-1-(4-fluorophenyl)ethyl]-3-[3-methoxy-4-(4-methyl-1H-imidazol-1-yl)benzylidene]piperidin-2-one]
  IC50: 0.08 µM

## COc1cc(/C=C2\CCCN(Cc3cccc(Cl)n3)C2=O)ccc1-n1cnc(C)c1 [Example 427, (E)-1-[(6-chloropyridin-2-yl)methyl]-3-[3-methoxy-4-(4-methyl-1H-imidazol-1-yl)benzylidene]piperidin-2-one]
  IC50: 0.78 µM

## COc1cc(/C=C2\CCCN(Cc3ccc(C(C)(C)C)cc3)C2=O)ccc1-n1cnc(C)c1 [Example 430, (E)-1-(4-tert-butylbenzyl)-3-[3-methoxy-4-(4-methyl-1H-imidazol-1-yl)benzylidene]piperidin-2-one]
  IC50: 0.119 µM

## COc1cc(/C=C2\CCCN(Cc3ccc(F)c(F)c3)C2=O)cnc1-n1cnc(C)c1 [Example 611, (E)-1-(3,4-difluorobenzyl)-3-{[5-methoxy-6-(4-methyl-1H-imidazol-1-yl)pyridin-3-yl]methylene}piperidin-2-one]
  IC50: 0.265 µM

## COc1cc(/C=C2\CCCN(C3(c4ccc(F)cc4)CCOCC3)C2=O)ccc1-n1cnc(C)c1 [Example 639, (E)-1-[4-(4-fluorophenyl)tetrahydropyran-4-yl)-3-(3-methoxy-4-(4-methyl-1H-imidazol-1-yl)benzylidene]piperidin-2-one]
  IC50: 0.056 µM

## COc1cc(/C=C2\CCCN(C(C)c3c[nH]c4ccccc34)C2=O)ccc1-n1cnc(C)c1 [Example 965, (E)-1-[(1R) and (1S)-(1H-indol-3-yl)ethyl]-3-[3-methoxy-4-(4-methyl-1H-imidazol-1-yl)benzylidene]piperidin-2-one]
  IC50: 0.087 µM

## COc1cc(/C=C2\CCCN(C(c3ccc(F)cc3)C(C)C)C2=O)ccc1-n1cnc(C)c1 [Example 976, (E)-1-[(1S) and (1R)-1-(4-fluorophenyl)-2-methylpropyl]-3-[3-methoxy-4-(4-methyl-1H-imidazol-1-yl)benzylidene]piperidin-2-one]
  IC50: 0.08 µM

## COc1cc(/C=C2\CCCN(C3Cc4ccc(F)cc4C3)C2=O)ccc1-n1cnc(C)c1 [Example 991, (E)-1-[(2S) and (2R)-5-fluoroindan-2-yl]-3-[3-methoxy-4-(4-methyl-1H-imidazol-1-yl)benzylidene]piperidin-2-one]
  IC50: 0.06 µM

Reference: patent US7687640B2, “Cinnamide compound” (Eisai R&D Management Co., Ltd., priority 2004, dated 2010)
